Measured values published in patent US20240132431A1, “METHOD FOR ALKYLATING ACIDIC FUNCTIONAL GROUP” (Chugai Seiyaku Kabushiki Kaisha, priority 2021, published 2024).

Target: T1, Bcl-2 protein (Recombinant Human Bcl-2 Protein) (Homo sapiens, UniProt P10415)
T1 construct: purchased Novus NBP2-34889
Experiment: Binding evaluation of mixture library compounds to Bcl-2 using AS-MS (affinity selection mass spectrometry)
Conditions: ASMS Ratio(%)=(A−C)/B×100; for ASMS ratio (%) n = 1: replicate n = 1; for ASMS ratio (%) n = 2: replicate n = 2
Experimental: For one well of MICROPLATE, 96-well, PP, V-BOTTOM (Greiner bio-one, 651201), DMSO solutions of 12 mixtures (prepared to approximately 0.58 mM based on calculations from the average molecular weight of each mixture), in each of which 100 compounds are mixed, were each dispensed, and dispensed into a total of 12 wells, where the 12 mixtures are mixAI-B4J-01, mixAI-B1M-01, mixAI-B1K-01, mixAI-B10-01, mixAI-B1A-01, mixAI-B3A-01, mixAI-B21-01, mixAI-B2L-01, mixAI-B2N-01, mixAI-B2A-01, mixAI-B2Q-01, and mixAI-B2R-01 listed in [Table AI-03-B4J-01], [Table AI-03-B1M-01], [Table AI-03-B1K-01], [Table AI-03-B10-01], [Table AI-03-B1A-01], [Table AI-03-B3A-01], [Table AI-03-B2I-01], [Table AI-03-B2L-01], [Table AI-03-B2N-01], [Table AI-03-B2A-01], [Table AI-03-B2Q-01], and [AI-03-B2R-01] shown in Example 6. Using the LABCYTE ECHO® 555 Acoustic Dispensing System (BECKMAN COULTER), 70 nL was collected from each of the 12 wells into one arbitrary well to prepare a sample solution with 1200 compounds in the mixed state (the presence of 1152 compounds had already been identified when prepared in Example 6-5-3). (In the present specification, the mixture collected in this one well is referred to as one library.) Furthermore, a Bcl-2 protein (Novus, NBP2-34889, Recombinant Human Bcl-2 Protein, Lot E60145051) (19.2 μL) that had been prepared in advance to be 20.9 μM using a Tris-HCl buffer (25 mM Tris-HCl pH 7.4, 150 mM NaCl, 0.025% Tween-20, 1 mM DTT) was added to the well in which 1200 compounds (the presence of 1152 compounds had already been identified when prepared in Example 6-5-3) were dispensed (final compound concentration […], final Bcl-2 concentration 20 μM), and the mixture was incubated in the dark at 23° C. for 1 hour. Next, using the 96-well MacroSpin column, P-2 Material (Harvard, 74-5655) that had been swollen, conditioning of the 96-well MacroSpin column was performed three times by centrifugation with 200 μL of an assay buffer (25 mM Tris-HCl pH 7.4, 150 mM NaCl, 0.025% Tween-20, 1 mM DTT), 2000 XG, 4° C., 2 min. Subsequently, 20 μL of the sample after incubation was added to the 96-well MacroSpin column, P-2 Material, that had been conditioned, and SEC treatment was performed by centrifugation at 2000×G for 2 minutes. To the liquid passed from the SEC, 32 μL of a 1:1 mixed solution of acetonitrile and methanol (LC/MS grade, Fujifilm Wako Pure Chemical Corporation) was added, the mixture was centrifuged at 1800×G, 4° C., 5 min, and the supernatant was used as analysis sample ASMS (A), while a sample that had been prepared by the same operations at 1200 compounds/well and to which only the Tris-HCl buffer had been added without the Bcl-2 protein was incubated under the same conditions, no 96-well MacroSpin column treatment was performed, the same organic solvent was added, and the supernatant solution obtained by centrifugation was used as STD (B). Next, a sample that had been prepared by the same operations at 1200 compounds/well and to which only the Tris-HCl buffer had been added without the Bcl-2 protein was incubated under the same conditions, the same 96-well MacroSpin column treatment was performed, the same organic solvent was added, and the supernatant solution obtained by centrifugation was used as BK (C), and measured by reversed phase LC/MS.
Then, analysis of the 1200 compounds was carried out for samples A, B, and C with TraceFinder 5.1 (Thermo Fisher Scientific) and CHANCE Software (in-house), and the ASMS Ratio (%) was calculated according to the following calculation formula.
Calculation formula: ASMS Ratio(%)=(A−C)/B×100

[1] = AS-MS, mixture of 1200 compounds, Bcl-2
[2] = AS-MS on the mixture of 1200 library compounds

T1 sequence (P10415 whole entry): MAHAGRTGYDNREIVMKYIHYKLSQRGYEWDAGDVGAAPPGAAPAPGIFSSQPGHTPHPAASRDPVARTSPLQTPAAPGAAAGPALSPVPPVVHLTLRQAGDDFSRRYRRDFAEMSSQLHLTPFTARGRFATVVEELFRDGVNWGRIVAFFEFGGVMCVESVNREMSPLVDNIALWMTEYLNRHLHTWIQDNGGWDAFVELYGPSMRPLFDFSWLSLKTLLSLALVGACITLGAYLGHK

Substance	ASMS ratio (%) n = 1 [1] [%]	ASMS ratio (%) n = 2 [1] [%]	ASMS ratio (%) n = 1 [2] [%]	ASMS ratio (%) n = 2 [2] [%]
4-[4-[1-[4-(3-Ethoxyphenyl)-2-fluorophenyl]ethyl]piperazin-1-yl]-N-propylbenzamide [B1M005-01]	0.0	1.4		
4-[4-[1-[4-(3-Ethoxyphenyl)phenyl]ethyl]piperazin-1-yl]-N-propylbenzamide [B1M003-01]	−1.9	2.0		
4-[4-[1-[4-(5-Ethoxypyridin-3-yl)-2-fluorophenyl]ethyl]piperazin-1-yl]-N-propylbenzamide [B1M006-01]	0.0	0.0		
4-[4-[1-[4-(5-Ethoxypyridin-3-yl)phenyl]ethyl]piperazin-1-yl]-N-propylbenzamide [B1M004-01]	0.0	0.0		
4-[4-[2-[2-(3-Ethoxyphenyl)ethynyl]benzoyl]piperazin-1-yl]-N-propylbenzamide [B1M097-01]			1.1	0.3
4-[4-[2-[2-(5-Ethoxypyridin-3-yl)ethynyl]benzoyl]piperazin-1-yl]-N-propylbenzamide [B1M098-01]			0.9	0.3
4-[4-[3-(3-Ethoxyphenyl)-5-(trifluoromethyl)benzoyl]piperazin-1-yl]-N-propylbenzamide [B1M092-01]				0.0
4-[4-[3-(5-Ethoxypyridin-3-yl)-5-(trifluoromethyl)benzoyl]piperazin-1-yl]-N-propylbenzamide [B1M008-01]		0.0		
4-[4-[3-[2-(3-Ethoxyphenyl)ethynyl]-5-(trifluoromethyl)benzoyl]piperazin-1-yl]-N-propylbenzamide [B1M014-01]	4.1	0.4		
4-[4-[3-[2-(3-Ethoxyphenyl)phenyl]propanoyl]piperazin-1-yl]-N-propylbenzamide [B1M068-01]	1.1	0.0		
4-[4-[3-[2-(5-Ethoxypyridin-3-yl)ethynyl]-5-(trifluoromethyl)benzoyl]piperazin-1-yl]-N-propylbenzamide [B1M019-01]	1.5	0.0		
4-[4-[3-[2-(5-Ethoxypyridin-3-yl)phenyl]propanoyl]piperazin-1-yl]-N-propylbenzamide [B1M078-01]	0.0	0.0		
4-[4-[3-[4-(3-Ethoxyphenyl)pyrazol-1-yl]-5-(trifluoromethyl)benzoyl]piperazin-1-yl]-N-propylbenzamide [B1M025-01]	3.6	−1.2		
4-[4-[3-[4-(5-Ethoxypyridin-3-yl)pyrazol-1-yl]-5-(trifluoromethyl)benzoyl]piperazin-1-yl]-N-propylbenzamide [B1M031-01]	0.0	−2.4		
4-[4-[3-tert-Butyl-5-(3-ethoxyphenyl)benzoyl]piperazin-1-yl]-N-propylbenzamide [B1M062-01]	1.6	−1.7		
4-[4-[3-tert-Butyl-5-(5-ethoxypyridin-3-yl)benzoyl]piperazin-1-yl]-N-propylbenzamide [B1M063-01]	0.4	−1.1		
4-[4-[4-(3-Ethoxyphenyl)-3-fluorobenzoyl]piperazin-1-yl]-N-propylbenzamide [B1M090-01]			0.0	0.0

Substance	ASMS ratio (%) n = 1 [1] [%]	ASMS ratio (%) n = 2 [1] [%]	ASMS ratio (%) n = 1 [2] [%]	ASMS ratio (%) n = 2 [2] [%]
4-[4-[4-(3-Ethoxyphenyl)-3-methylbenzoyl]piperazin-1-yl]-N-propylbenzamide [B1M038-01]	0.0	1.7		
4-[4-[4-(3-Ethoxyphenyl)naphthalene-1-carbonyl]piperazin-1-yl]-N-propylbenzamide [B1M073-01]	0.4	−0.5		
4-[4-[4-(3-Ethoxyphenyl)thiophene-2-carbonyl]piperazin-1-yl]-N-propylbenzamide [B1M083-01]			0.0	−0.3
4-[4-[4-(5-Ethoxypyridin-3-yl)-3-fluorobenzoyl]piperazin-1-yl]-N-propylbenzamide [B1M091-01]			0.0	0.0
4-[4-[4-(5-Ethoxypyridin-3-yl)-3-methylbenzoyl]piperazin-1-yl]-N-propylbenzamide [B1M039-01]	2.3	−0.6		
4-[4-[4-(5-Ethoxypyridin-3-yl)naphthalene-1-carbonyl]piperazin-1-yl]-N-propylbenzamide [B1M074-01]	−1.6	0.9		
4-[4-[4-(5-Ethoxypyridin-3-yl)thiophene-2-carbonyl]piperazin-1-yl]-N-propylbenzamide [B1M084-01]			0.0	0.0
4-[4-[5-[2-(3-Ethoxyphenyl)ethynyl]pyridine-3-carbonyl]piperazin-1-yl]-N-propylbenzamide [B1M002-01]	−0.7	−1.5		
4-[4-[5-[2-(5-Ethoxypyridin-3-yl)ethynyl]pyridine-3-carbonyl]piperazin-1-yl]-N-propylbenzamide [B1M057-01]	−0.7	1.4		
4-[4-[[2-(3-Ethoxyphenyl)phenyl]methyl]piperazin-1-yl]-N-propylbenzamide [B1M040-01]	−0.3	0.0		
4-[4-[[2-(5-Ethoxypyridin-3-yl)phenyl]methyl]piperazin-1-yl]-N-propylbenzamide [B1M041-01]	0.7	−3.5		
4-[4-[[3-(3-Ethoxyphenyl)-5-(trifluoromethoxy)phenyl]methyl]piperazin-1-yl]-N-propylbenzamide [B1M032-01]	0.3	0.3		
4-[4-[[3-(3-Ethoxyphenyl)-5-(trifluoromethyl)phenyl]methyl]piperazin-1-yl]-N-propylbenzamide [B1M026-01]	0.9	0.9		
4-[4-[[3-(5-Ethoxypyridin-3-yl)-5-(trifluoromethoxy)phenyl]methyl]piperazin-1-yl]-N-propylbenzamide [B1M034-01]	−0.3	−0.2		
4-[4-[[3-(5-Ethoxypyridin-3-yl)-5-(trifluoromethyl)phenyl]methyl]piperazin-1-yl]-N-propylbenzamide [B1M028-01]	0.0	0.0		
4-[4-[[3-(5-Ethoxypyridin-3-yl)-5-propan-2-yloxyphenyl]methyl]piperazin-1-yl]-N-propylbenzamide [B1M017-01]	−0.1	0.3		
